Data reported in patent US8361971B2, “Tablet formulation of ezatiostat” (Telik, Inc., priority 2010, dated 2013).

Key:
Format in all cases: physicochemical
[1] = Description (appearance) of tablets on storage
Procedure: (§1) Tablets of ansolvate form D, were packaged with and without desiccant (Sorb-It Cannister, 1 gram). Fifty tablets were packaged in a round, white 1500 mL bottle with a screw cap over an induction seal. Impurities were assayed by HPLC. When stored at 25° C./60% RH with desiccant for 3 months, no increase in total impurities was observed. When stored at 40° C./75% RH with desiccant for 3 months, total impurities increased only by 0.3%. When stored at 40° C./75% RH without desiccant for 3 months, total impurities still increased by 1.1%. As tabulated below, the presence of desiccant appears to further increase the stability of the ansolvate form D. Even though the dissolution rate of tablets containing polymorph D from one batch was below specification (<70%) at an initial test as well as after 3 months at 25° C./60% RH with desiccant, the subsequent batches met the required specification.

[2] = Assay and impurities by HPLC of tablets on storage; set-up: key to Individual Impurities RRT = 0.74 / Individual Impurities RRT = 0.83 / TLK 236 RRT = 0.88 / Individual Impurities RRT = 0.94 / Individual Impurities RRT = 0.96 / Total impurities / Individual Impurities RRT = 0.80 / Individual Impurities RRT = 0.81 / Individual Impurities RRT = 0.86 / Individual Impurities RRT = 0.99: impurity content in %
Text: As used herein, “impurity” refers to one or more of: TLK 236, another polymorphic form of ezatiostat hydrochloride including without limitation form A, B, C, E, or F, and any other compound other than ezatiostat hydrochloride ansolvate, which may be identified by HPLC. TLK 236 is a monoester derived from the partial hydrolysis of ezatiostat where the phenyl glycine moiety remains esterified.
(§2) As described above, form E converts to form B simply during tableting.
as §1

[3] = Water content of tablets on storage
Procedure: Karl Fischer analyses for water determination were performed on a Mettler Toledo DL39 Karl Fischer titrator. About 10-15 mg of sample was placed in the KF titration vessel containing approximately 100 mL of Hydranal®—Coulomat AD reagent and mixed for 60 seconds to ensure dissolution. The dissolved sample was then titrated by means of a generator electrode which produces iodine by electrochemical oxidation. […]
as §1

[4] = X-ray diffraction, polymorphic form in tablets; details: for X-ray Diffraction: tablets
Procedure: X-ray powder diffraction (XRPD) analyses were performed on a Shimadzu XRD-6000 X-ray powder diffractometer using Cu Kα radiation from a long fine focus X-ray tube, operated at 40 kV, 40 mA. The divergence and scattering slits were set at 1° and the receiving slit was set at 0.15 mm. Diffracted radiation was detected by a NaI scintillation detector. A θ-2θ continuous scan at 3°/min (0.4 sec/0.02° step) from 2.5°-40° 2θ was used. A silicon standard was analyzed to check alignment of the instrument. Data were collected and analyzed using XRD-6000 v.4.1 software.
Stress experiments: solids were stressed under different temperature and/or relative humidity (RH) environments for a measured time period. Specific RH values were achieved by placing the sample inside sealed chambers containing saturated salt solutions. Samples were analyzed by XRPD immediately after removal from the stress environment.
as §2, §1

[5] = Tablet dissolution (Q at 45 min); details: for Dissolution, Mean at 45 min: tablets
Text: Without being bound by theory, a higher dissolution rate relates to a higher amount of the active agent in the gastric fluid, which in turn relates to higher bioavailability of the active agent. A high bioavailability is desired, for example and without limitation, for reducing inter patient variability of drug exposure for a orally administered agent such as ezatiostat hydrochloride. […] The aqueous solubility can be measured in a variety of aqueous solvents, including without limitation, water, 0.9% aqueous NaCl, 5% dextrose for injection, phosphate buffered saline, and generally aqueous solutions having a pH of less than about 5. Such solvents may include suitable buffers and other salts. […]
as §1

[6] = Assay and impurities by HPLC of tablets on storage; set-up: key to Individual Impurities RRT = 0.74 / TLK 236 RRT = 0.88 / Individual Impurities RRT = 0.96 / Total impurities: impurity content in %; details: 6 Month at 40° C./75% RH without desiccant, hydrochloride
[7] = 3 Month at 40° C./75% RH without desiccant
[8] = 6 Month at 40° C./75% RH without desiccant, hydrochloride
[9] = 3 Month at 40° C./75% RH without desiccant, hydrochloride
[10] = 3 Month at 25° C./60% RH with desiccant
[11] = 3 Month at 40° C./75% RH with desiccant
[12] = 3 Month at 40° C./75% RH without desiccant, listed as Form D Ansolvate, hydrochloride
[13] = Initial, listed as Form D Ansolvate, hydrochloride

## CCOC(=O)[C@@H](N)CCC(=O)N[C@@H](CSCc1ccccc1)C(=O)N[C@@H](C(=O)OCC)c1ccccc1.Cl [Polymorph Form A, ezatiostat hydrochloride]
[1]; [7]
  Description: Off-white
[1]; [8]
  Description: Off-white
[1]; Initial
  Description: White round
[2]; [9]
  Assay (HPLC): 94.1 % Label Claim
  Individual Impurities RRT = 0.74: 0.16
  Individual Impurities RRT = 0.80: 0.08
  Individual Impurities RRT = 0.81: 0.07
  Individual Impurities RRT = 0.83: 0.10
  Individual Impurities RRT = 0.94: 0.07
  Individual Impurities RRT = 0.96: 0.16
  Individual Impurities RRT = 0.99: 0.07
  TLK 236 RRT = 0.88: 1.99
  Total impurities: 2.7
[2]; [8]
  Individual Impurities RRT = 0.80: 0.14
  Individual Impurities RRT = 0.81: 0.05
[2]; Initial, hydrochloride
  Assay (HPLC): 97.2 % Label Claim
  Individual Impurities RRT = 0.74: 0.13
  Individual Impurities RRT = 0.83: 0.46
  Individual Impurities RRT = 0.96: 0.16
  TLK 236 RRT = 0.88: 0.45
  Total impurities: 1.2
[3]; [9]
  Water Content: 1.7%
[3]; [8]
  Water Content: 1.9%
[3]; Initial, hydrochloride
  Water Content: 2.1%
[4]; during tablet manufacture, listed as solvate form A, hydrochloride
  polymorphic conversion during tablet manufacture: converting into a mixture of forms A and D during manufacture
[4]; [9]
  X-ray Diffraction: Polymorph A
[4]; [8]
  X-ray Diffraction: Polymorph A
[4]; Initial, hydrochloride
  X-ray Diffraction: Polymorph A
[5]; [9]
  Dissolution, Mean at 45 min: Mean = 74 % of label claim
[5]; [8]
  Dissolution, Mean at 45 min: Mean = 71 % of label claim
[5]; Initial, hydrochloride
  Dissolution, Mean at 45 min: Mean = 12 % of label claim
[6]
  Assay (HPLC): 91.5 % Label Claim
  Individual Impurities RRT = 0.59/0.62: 0.07
  Individual Impurities RRT = 0.74: 0.15
  Individual Impurities RRT = 0.96: 0.21
  TLK 236 RRT = 0.88: 2.92
  Total impurities: 3.5

## CCOC(=O)[C@@H](N)CCC(=O)N[C@@H](CSCc1ccccc1)C(=O)N[C@@H](C(=O)OCC)c1ccccc1.Cl [Polymorphic form B, ezatiostat hydrochloride]
[2]; Total impurities of Tables 5-7
  rate of decomposition relative to ansolvate form D: more than double the rate of decomposition of the ansolvate form D

## CCOC(=O)[C@@H](N)CCC(=O)N[C@@H](CSCc1ccccc1)C(=O)N[C@@H](C(=O)OCC)c1ccccc1.Cl [Polymorph Form D, ezatiostat hydrochloride]
[1]; [10]
  Description: White round
[1]; [11]
  Description: Off-white
[1]; [7]
  Description: Off-white
[1]; [8]
  Description: Brown round
[1]; Initial
  Description: White round
[2]; [10]
  Assay (HPLC): 99.7 % Label Claim
  Individual Impurities RRT = 0.74/0.72: 0.16
  Individual Impurities RRT = 0.96: 0.19
  TLK 236 RRT = 0.88: 0.34
  Total impurities: 0.7
[2]; [11]
  Assay (HPLC): 100.8 % Label Claim
  Individual Impurities RRT = 0.74/0.72: 0.16
  Individual Impurities RRT = 0.83: 0.09
  Individual Impurities RRT = 0.94: 0.06
  Individual Impurities RRT = 0.96: 0.19
  TLK 236 RRT = 0.88: 0.53
  Total impurities: 1.0
[2]; [7]
  Individual Impurities RRT = 0.74/0.72: 0.18
[2]; [9]
  Assay (HPLC): 100.3 % Label Claim
  Individual Impurities RRT = 0.74: 0.21
  Individual Impurities RRT = 0.83: 0.07
  Individual Impurities RRT = 0.94: 0.07
  Individual Impurities RRT = 0.96: 0.19
  TLK 236 RRT = 0.88: 1.33
  Total impurities: 1.9
[2]; [12]
  Assay (HPLC): 100.3 % Label Claim
  Individual Impurities RRT = 0.83: 0.08
  Individual Impurities RRT = 0.94: 0.07
  Individual Impurities RRT = 0.96: 0.18
  TLK 236 RRT = 0.88: 1.3
  Total impurities: 1.8
[2]; [8]
  Individual Impurities RRT = 0.83: 0.09
[2]; 25° C./60% RH with desiccant for 3 months
  increase in total impurities: no increase
[2]; 40° C./75% RH with desiccant for 3 months
  increase in total impurities: 0.3%
[2]; 40° C./75% RH without desiccant for 3 months
  increase in total impurities: 1.1%
[2]; Initial
  Individual Impurities RRT = 0.74/0.72: 0.21
[2]; Initial, hydrochloride
  Assay (HPLC): 101.4 % Label Claim
  Individual Impurities RRT = 0.74: 0.21
  Individual Impurities RRT = 0.96: 0.18
  TLK 236 RRT = 0.88: 0.35
  Total impurities: 0.7
[2]; [13]
  Assay (HPLC): 101.4 % Label Claim
  Individual Impurities RRT = 0.96: 0.18
  TLK 236 RRT = 0.88: 0.35
  Total impurities: 0.7
[3]; [10]
  Water Content: 0.5%
[3]; [11]
  Water Content: 0.6%
[3]; [9]
  Water Content: 0.8%
[3]; [12]
  Water Content: 0.8%
[3]; [8]
  Water Content: 0.8%
[3]; Initial, hydrochloride
  Water Content: 0.9%
[3]; [13]
  Water Content: 0.9%
[4]; 40° C. and 75% RH without a desiccant, form D 6 months, form E 3 months, listed as ansolvate form D, hydrochloride
  polymorphic conversion on storage: resistance to conversion to a solvate form
[4]; [10]
  X-ray Diffraction: Polymorph D
[4]; [11]
  X-ray Diffraction: Polymorph D
[4]; [9]
  X-ray Diffraction: Polymorph D
[4]; [12]
  X-ray Diffraction: Polymorph D
[4]; [8]
  X-ray Diffraction: Polymorph D
[4]; Initial, hydrochloride
  X-ray Diffraction: Polymorph D
[4]; [13]
  X-ray Diffraction: Polymorph D
[5]; as part of a tablet, measured in 0.1 molar HCl
  aqueous dissolution rate: higher aqueous dissolution rate than polymorphic form E
[5]; 3 Month at 25° C./60% RH with desiccant, listed as Form D Ansolvate, hydrochloride
  Dissolution, Mean at 45 min: Mean = 46 % of label claim
[5]; 3 Month at 25° C./60% RH with desiccant, listed as polymorph D, hydrochloride
  Dissolution, Mean at 45 min: < 70 % of label claim
[5]; [11]
  Dissolution, Mean at 45 min: Mean = 76 % of label claim
[5]; [9]
  Dissolution, Mean at 45 min: Mean = 88 % of label claim
[5]; [12]
  Dissolution, Mean at 45 min: Mean = 88 % of label claim
[5]; [8]
  Dissolution, Mean at 45 min: Mean = 81 % of label claim
[5]; Initial, hydrochloride
  Dissolution, Mean at 45 min: Mean = 51 % of label claim
[5]; [13]
  Dissolution, Mean at 45 min: Mean = 51 % of label claim
[5]; Initial, listed as polymorph D, hydrochloride
  Dissolution, Mean at 45 min: < 70 % of label claim
[6]
  Assay (HPLC): 96.5 % Label Claim
  Individual Impurities RRT = 0.59/0.62: 0.08
  Individual Impurities RRT = 0.74: 0.20
  Individual Impurities RRT = 0.96: 0.23
  TLK 236 RRT = 0.88: 2.07
  Total impurities: 2.7
